Source: patent US8613914B2, “Peptidomimetic sulfamide compounds and antiviral uses thereof” (Novartis AG, priority 2009, dated 2013)

Each compound was assayed against HCV NS3-4A serine protease (full-length NS3-4A protein) (Hepatitis C virus genotype 1a (isolate 1) (HCV), UniProt P26664) (assay: HCV NS3-4A protease assay). Conditions: strain HCV-1, fluorogenic peptide substrate, read-out: Protease assay Ex. 12 IC50.
Format: biochemical, HCV genotype 1a
Experimental: The inhibitory activity of certain compounds of Table A against HCV NS3-4A serine protease is determined in a homogenous assay using the full-length NS3-4A protein (genotype 1a, strain HCV-1) and a commercially available internally-quenched fluorogenic peptide substrate as described by Taliani, M., et al. 1996 Anal. Biochem. 240:60-67, which is incorporated by reference in its entirety.

Sequence of HCV NS3-4A serine protease (full-length NS3-4A protein) (P26664 1027-1657): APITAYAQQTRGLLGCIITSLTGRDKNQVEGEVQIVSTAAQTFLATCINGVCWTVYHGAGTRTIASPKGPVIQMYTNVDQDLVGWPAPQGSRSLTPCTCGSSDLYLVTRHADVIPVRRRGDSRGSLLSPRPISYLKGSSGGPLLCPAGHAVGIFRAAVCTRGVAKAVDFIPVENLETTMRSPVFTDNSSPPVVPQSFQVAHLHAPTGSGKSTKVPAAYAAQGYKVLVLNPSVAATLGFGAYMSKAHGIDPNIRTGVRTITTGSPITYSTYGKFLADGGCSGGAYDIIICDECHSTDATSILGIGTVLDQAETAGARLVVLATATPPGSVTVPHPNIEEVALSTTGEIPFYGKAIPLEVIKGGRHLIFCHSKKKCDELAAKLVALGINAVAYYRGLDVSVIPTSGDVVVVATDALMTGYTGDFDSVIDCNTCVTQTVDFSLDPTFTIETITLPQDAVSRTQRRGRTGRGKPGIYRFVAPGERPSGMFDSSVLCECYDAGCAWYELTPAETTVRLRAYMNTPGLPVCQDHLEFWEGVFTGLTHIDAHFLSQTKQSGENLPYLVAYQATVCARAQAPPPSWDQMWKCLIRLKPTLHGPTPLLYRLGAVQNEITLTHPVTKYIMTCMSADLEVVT
Sequence of HCV NS3-4A serine protease (full-length NS3-4A protein) (P26664 1658-1711 partner): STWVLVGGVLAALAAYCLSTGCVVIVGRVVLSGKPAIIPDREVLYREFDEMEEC

C=C[C@@H]1C[C@]1(NC(=O)[C@@H]1C[C@@]2(CN1C(=O)[C@@H](NC(=O)[C@@H](NC(=O)[C@@H]1CCCCN1C(C)C)C1CCCCC1)C(C)(C)C)C(C)(C)C21CCC1)C(=O)NS(=O)(=O)N1CCCCC1 [Compound 113, (5R,8S)-7-[(2S)-2-{[(2S)-2-cyclohexyl-2-({[(2S)-1-isopropylpiperidin-2-yl]carbonyl}amino)acetyl]amino}-3,3-dimethylbutanoyl]-10,10-dimethyl-N-{(1R,2S)-1-[(piperidin-1-ylsulfonyl)carbamoyl]-2-vinylcyclopropyl}-7-azadispiro[3.0.4.1]decane-8-carboxamide] and C=C[C@@H]1C[C@]1(NC(=O)[C@@H]1C[C@@]2(CN1C(=O)[C@@H](NC(=O)[C@@H](NC(=O)[C@H]1CCCCN1C(C)C)C1CCCCC1)C(C)(C)C)C(C)(C)C21CCC1)C(=O)NS(=O)(=O)N1CCCCC1 [Compound 115, (5R,8S)-7-[(2S)-2-{[(2S)-2-cyclohexyl-2-({[(2R)-1-isopropylpiperidin-2-yl]carbonyl}amino)acetyl]amino}-3,3-dimethylbutanoyl]-10,10-dimethyl-N-{(1R,2S)-1-[(piperidin-1-ylsulfonyl)carbamoyl]-2-vinylcyclopropyl}-7-azadispiro[3.0.4.1]decane-8-carboxamide] are within 1.5-fold of each other in IC50: 3.5 nM for the first, 4.5 nM for the second.

C=C[C@@H]1C[C@]1(NC(=O)[C@@H]1C[C@@]2(CN1C(=O)[C@@H](NC(=O)[C@@H](NC(=O)[C@H]1CCCCN1C(C)C)C1CCCCC1)C(C)(C)C)C(C)(C)C21CCC1)C(=O)NS(=O)(=O)N(C)CCC [Compound 114, (5R,8S)-7-[(2S)-2-{[(2S)-2-cyclohexyl-2-({[(2R)-1-isopropylpiperidin-2-yl]carbonyl}amino)acetyl]amino}-3,3-dimethylbutanoyl]-10,10-dimethyl-N-[(1R,2S)-1-({[methyl(propyl)amino]sulfonyl}carbamoyl)-2-vinylcyclopropyl]-7-azadispiro[3.0.4.1]decane-8-carboxamide] and C=C[C@@H]1C[C@]1(NC(=O)[C@@H]1C[C@@]2(CN1C(=O)[C@@H](NC(=O)[C@@H](NC(=O)[C@H]1CCCCN1C(C)C)C1CCCCC1)C(C)(C)C)C(C)(C)C21CCC1)C(=O)NS(=O)(=O)N(C)C(C)C [Compound 119, (5R,8S)-7-[(2S)-2-{[(2S)-2-cyclohexyl-2-({[(2R)-1-isopropylpiperidin-2-yl]carbonyl}amino)acetyl]amino}-3,3-dimethylbutanoyl]-N-[(1R,2S)-1-({[isopropyl(methyl)amino]sulfonyl}carbamoyl)-2-vinylcyclopropyl]-10,10-dimethyl-7-azadispiro[3.0.4.1]decane-8-carboxamide] are within 1.5-fold of each other in IC50: 4.5 nM for the first, 6.5 nM for the second.

Going from CC[C@@H]1C[C@]1(NC(=O)[C@@H]1C[C@@]2(CN1C(=O)[C@@H](NC(=O)[C@@H](NC(=O)[C@@H]1CCCN1C(C)C)C1CCCCC1)C(C)(C)C)C(C)(C)C21CCC1)C(=O)NS(=O)(=O)N1CCCC1 [Compound 116, (5R,8S)-7-[(2S)-2-{[(2S)-2-cyclohexyl-2-({[(2S)-1-isopropylpyrrolidin-2-yl]carbonyl}amino)acetyl]amino}-3,3-dimethylbutanoyl]-N-{(1R,2R)-2-ethyl-1-[(pyrrolidin-1-ylsulfonyl)carbamoyl]cyclopropyl}-10,10-dimethyl-7-azadispiro[3.0.4.1]decane-8-carboxamide] to CC[C@@H]1C[C@]1(NC(=O)[C@@H]1C[C@@]2(CN1C(=O)[C@@H](NC(=O)[C@@H](NC(=O)[C@H]1CCCCN1C(C)C)C1CCCCC1)C(C)(C)C)C(C)(C)C21CCC1)C(=O)NS(=O)(=O)N1CCCC1 [Compound 123, (5R,8S)-7-[(2S)-2-{[(2S)-2-cyclohexyl-2-({[(2R)-1-isopropylpiperidin-2-yl]carbonyl}amino)acetyl]amino}-3,3-dimethylbutanoyl]-N-{(1R,2R)-2-ethyl-1-[(pyrrolidin-1-ylsulfonyl)carbamoyl]cyclopropyl}-10,10-dimethyl-7-azadispiro[3.0.4.1]decane-8-carboxamide], the IC50 rises from 4.5 nM to 8 nM (1.8-fold). The first is the more potent here.

CC[C@@H]1C[C@]1(NC(=O)[C@@H]1C[C@@]2(CN1C(=O)[C@@H](NC(=O)[C@@H](NC(=O)[C@@H]1CCCN1C(C)C)C1CCCCC1)C(C)(C)C)C(C)(C)C21CCC1)C(=O)NS(=O)(=O)N(CC)CC [Compound 117, (5R,8S)-7-[(2S)-2-{[(2S)-2-cyclohexyl-2-({[(2S)-1-isopropylpyrrolidin-2-yl]carbonyl}amino)acetyl]amino}-3,3-dimethylbutanoyl]-N-[(1R,2R)-1-{[(diethylamino)sulfonyl]carbamoyl}-2-ethylcyclopropyl]-10,10-dimethyl-7-azadispiro[3.0.4.1]decane-8-carboxamide] and CC[C@@H]1C[C@]1(NC(=O)[C@@H]1C[C@@]2(CN1C(=O)[C@@H](NC(=O)[C@@H](NC(=O)[C@H]1CCCCN1C(C)C)C1CCCCC1)C(C)(C)C)C(C)(C)C21CCC1)C(=O)NS(=O)(=O)N(CC)CC [Compound 121, (5R,8S)-7-[(2S)-2-{[(2S)-2-cyclohexyl-2-({[(2R)-1-isopropylpiperidin-2-yl]carbonyl}amino)acetyl]amino}-3,3-dimethylbutanoyl]-N-[(1R,2R)-1-{[(diethylamino)sulfonyl]carbamoyl}-2-ethylcyclopropyl]-10,10-dimethyl-7-azadispiro[3.0.4.1]decane-8-carboxamide] are within 1.5-fold of each other in IC50: 5.5 nM for the first, 7 nM for the second.

Compared with C=C[C@@H]1C[C@]1(NC(=O)[C@@H]1C[C@@]2(CN1C(=O)[C@@H](NC(=O)[C@@H](NC(=O)[C@@H]1CCCCN1C)C1CCCCC1)C(C)(C)C)C(C)(C)C21CCC1)C(=O)NS(=O)(=O)N(CC)CC [Compound 118, (5R,8S)-7-[(2S)-2-{[(2S)-2-cyclohexyl-2-({[(2S)-1-methylpiperidin-2-yl]carbonyl}amino)acetyl]amino}-3,3-dimethylbutanoyl]-N-[(1R,2S)-1-{[(diethylamino)sulfonyl]carbamoyl}-2-vinylcyclopropyl]-10,10-dimethyl-7-azadispiro[3.0.4.1]decane-8-carboxamide], C=C[C@@H]1C[C@]1(NC(=O)[C@@H]1C[C@@]2(CN1C(=O)[C@@H](NC(=O)[C@@H](NC(=O)[C@H]1CCCCN1C(C)C)C1CCCCC1)C(C)(C)C)C(C)(C)C21CCC1)C(=O)NS(=O)(=O)N(CC)C(C)C [Compound 120, (5R,8S)-7-[(2S)-2-{[(2S)-2-cyclohexyl-2-({[(2R)-1-isopropylpiperidin-2-yl]carbonyl}amino)acetyl]amino}-3,3-dimethylbutanoyl]-N-[(1R,2S)-1-({[ethyl(isopropyl)amino]sulfonyl}carbamoyl)-2-vinylcyclopropyl]-10,10-dimethyl-7-azadispiro[3.0.4.1]decane-8-carboxamide] is 2.2-fold higher in IC50: 4.5 nM for the first, 10 nM for the second. The first is the more potent here.

Compared with C=C[C@@H]1C[C@]1(NC(=O)[C@@H]1C[C@@]2(CN1C(=O)[C@@H](NC(=O)[C@@H](NC(=O)[C@@H]1CCCCN1C(C)C)C(C)C)C(C)(C)C)C(C)(C)C21CCC1)C(=O)NS(=O)(=O)N(CC)CC [Compound 122, (5R,8S)-N-[(1R,2S)-1-{[(diethylamino)sulfonyl]carbamoyl}-2-vinylcyclopropyl]-7-[(2S)-2-{[(2S)-2-({[(2S)-1-isopropylpiperidin-2-yl]carbonyl}amino)-3-methylbutanoyl]amino}-3,3-dimethylbutanoyl]-10,10-dimethyl-7-azadispiro[3.0.4.1]decane-8-carboxamide], C=C[C@@H]1C[C@]1(NC(=O)[C@@H]1C[C@@]2(CN1C(=O)[C@@H](NC(=O)[C@@H](NC(=O)[C@@H]1CCCN1CC)C(C)(C)C)C1(C)CCOCC1)C(C)(C)C21CCC1)C(=O)NS(=O)(=O)N1CCCC1 [Compound 126, 1-ethyl-L-prolyl-N-[(1S)-2-[(5R,8S)-10,10-dimethyl-8-({(1R,2S)-1-[(pyrrolidin-1-ylsulfonyl)carbamoyl]-2-vinylcyclopropyl}carbamoyl)-7-azadispiro[3.0.4.1]dec-7-yl]-1-(4-methyltetrahydro-2H-pyran-4-yl)-2-oxoethyl]-3-methyl-L-valinamide] is 4.3-fold higher in IC50: 1.4 nM for the first, 6 nM for the second.

Going from C=C[C@@H]1C[C@]1(NC(=O)[C@@H]1C[C@@]2(CN1C(=O)[C@@H](NC(=O)[C@@H](NC(=O)[C@@H]1CCCCN1C(C)C)C1CCCCC1)C1(C)CCOCC1)C(C)(C)C21CCC1)C(=O)NS(=O)(=O)N1CCCC1 [Compound 124, (5R,8S)-7-[(2S)-2-{[(2S)-2-cyclohexyl-2-({[(2S)-1-isopropylpiperidin-2-yl]carbonyl}amino)acetyl]amino}-2-(4-methyltetrahydro-2H-pyran-4-yl)acetyl]-10,10-dimethyl-N-{(1R,2S)-1-[(pyrrolidin-1-ylsulfonyl)carbamoyl]-2-vinylcyclopropyl}-7-azadispiro[3.0.4.1]decane-8-carboxamide] to C=C[C@@H]1C[C@]1(NC(=O)[C@@H]1C[C@@]2(CN1C(=O)[C@@H](NC(=O)[C@@H](NC(=O)[C@@H]1CCCCN1C(C)C)C1CCOCC1)C1(C)CCOCC1)C(C)(C)C21CCC1)C(=O)NS(=O)(=O)N1CCCC1 [Compound 127, (5R,8S)-7-[(2S)-2-{[(2S)-2-({[(2S)-1-isopropylpiperidin-2-yl]carbonyl}amino)-2-(tetrahydro-2H-pyran-4-yl)acetyl]amino}-2-(4-methyltetrahydro-2H-pyran-4-yl)acetyl]-10,10-dimethyl-N-{(1R,2S)-1-[(pyrrolidin-1-ylsulfonyl)carbamoyl]-2-vinylcyclopropyl}-7-azadispiro[3.0.4.1]decane-8-carboxamide], the IC50 rises from 1.5 nM to 4 nM (2.7-fold). The first is the more potent here.

C=C[C@@H]1C[C@]1(NC(=O)[C@@H]1C[C@@]2(CN1C(=O)[C@@H](NC(=O)[C@@H](NC(=O)[C@@H]1CCCN1CC)C1CCCCC1)C1(C)CCOCC1)C(C)(C)C21CCC1)C(=O)NS(=O)(=O)N1CCCC1 [Compound 125, (5R,8S)-7-[(2S)-2-{[(2S)-2-cyclohexyl-2-({[(2S)-1-ethylpyrrolidin-2-yl]carbonyl}amino)acetyl]amino}-2-(4-methyltetrahydro-2H-pyran-4-yl)acetyl]-10,10-dimethyl-N-{(1R,2S)-1-[(pyrrolidin-1-ylsulfonyl)carbamoyl]-2-vinylcyclopropyl}-7-azadispiro[3.0.4.1]decane-8-carboxamide] showed an IC50 of under 0.3 nM.
